Among the data in ChEMBL document CHEMBL1150732, “Anticandidal activity of eupolauridine and onychine, alkaloids from Cleistopholis patens” (1987) are MIC and Activity values, retold here.

The experiment deals with Candida albicans. The experiment in a line: Antifungal activity against Candida albicans B311 after 24 to 48 hrs by twofold serial dilution method. The class given is functional.

Structures are written as SMILES. Converted amounts (≈) assume the structure as drawn. The source made the active and inactive calls. No cut-off for these calls is given here.

The compound `Cc1ccnc2c1-c1ccccc1C2=O` showed an MIC of 3.12 µg/mL (≈ 16 µM).
With `Cc1ccnc2c1C(=O)c1ccccc1-2`, the outcome was Active.
Take `C[C@@H]1[C@H](O)[C@@H](C)/C=C/C=C/C=C/C=C/C=C/C=C/C=C/[C@H](O[C@@H]2O[C@H](C)[C@@H](O)[C@H](N)[C@@H]2O)C[C@@H]2O[C@](O)(C[C@@H](O)C[C@@H](O)[C@H](O)CC[C@@H](O)C[C@@H](O)CC(=O)O[C@H]1C)C[C@H](O)[C@H]2C(=O)O` [AMPHOTERICIN B]: the MIC was found to be 0.39 µg/mL (≈ 0.422 µM).
Compound `c1ccc2c(c1)-c1nccc3ccnc-2c13` [EUPOLAURIDINE] came in with an MIC of 1.56 µg/mL (≈ 7.64 µM).

A word on the MIC: it is the lowest concentration found to suppress growth. High values mean a need for much substance, low ones inhibition by little substance.
